The target in assay [1] is T1, human acid ceramidase (AC) (Homo sapiens, UniProt Q13510).
T1 construct: made in house; host or cells: HEK-293 cells stably overexpressing human AC; enzyme-enriched lysate
T1 sequence (Q13510 143-395 limits assumed): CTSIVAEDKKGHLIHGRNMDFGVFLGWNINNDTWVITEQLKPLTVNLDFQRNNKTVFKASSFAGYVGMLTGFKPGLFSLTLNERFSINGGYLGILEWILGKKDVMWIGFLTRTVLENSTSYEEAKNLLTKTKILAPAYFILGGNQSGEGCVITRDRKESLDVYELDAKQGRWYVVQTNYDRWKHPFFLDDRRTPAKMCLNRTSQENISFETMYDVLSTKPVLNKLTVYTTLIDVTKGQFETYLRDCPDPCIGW
T1 sequence (Q13510 22-142 limits assumed): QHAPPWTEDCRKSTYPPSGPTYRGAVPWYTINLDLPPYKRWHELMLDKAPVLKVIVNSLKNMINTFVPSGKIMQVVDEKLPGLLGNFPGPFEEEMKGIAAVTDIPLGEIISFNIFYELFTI
As to the kind of experiment: Fluorogenic human-AC assay. Type of assay: biochemical. As for the experimental part:
Human recombinant proteins were obtained from HEK-293 stable overexpressing human NAAA, AC, and FAAH-1 cell lines, respectively. Cells were grown in Dulbecco’s modified Eagle medium (DMEM) containing 10% FBS, 1% glutamine, 1 mM sodium pyruvate, and 500 μg/mL geneticin (G418). To obtain a high-density cell proliferation, h-NAAA-HEK-293 cells were grown in BelloCell-500 bottle, a compact bioreactor. On the contrary, h-AC and h-FAAH-1-HEK-293 cells were grown in 150 mm dishes and scraped off with cold PBS 1× pH 7.4 at 80% confluence. Cell pellets were collected and stored at −80 °C until protein preparation.
HEK-293 cells stably transfected with the human NAAA or human AC coding sequences were used as the enzyme source. […] The suspension was finally centrifuged at 105,000g for 1 h at 4 °C, supernatants were collected, protein concentration was measured, and samples were aliquoted and stored at −80 °C until use.
The assay was performed in Optiplate 96-wells black plates (PerkinElmer, Massachusetts, USA) in a total reaction volume of 250 μL. h-AC protein (2 μg) was preincubated for 10 min with various concentrations of test compounds or vehicle control (DMSO 5%) in 25 mM sodium acetate buffer (pH 4.5). […] Fluorescence was measured with the EnVision 2014 Multilabel Reader (PerkinElmer, Massachusetts, USA) at an excitation/emission wavelength of 355/460 nm. […]

A further assay concerns the target T2, h-NAAA (Homo sapiens, UniProt Q02083).
T2 construct: made in house; host or cells: HEK-293 cells stably overexpressing human NAAA; enzyme-enriched (lysosomal) lysate
T2 sequence (Q02083 29-125 limits assumed): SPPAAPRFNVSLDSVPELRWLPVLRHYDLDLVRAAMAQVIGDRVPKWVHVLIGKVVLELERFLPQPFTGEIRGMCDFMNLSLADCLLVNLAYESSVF
T2 sequence (Q02083 126-359 limits assumed): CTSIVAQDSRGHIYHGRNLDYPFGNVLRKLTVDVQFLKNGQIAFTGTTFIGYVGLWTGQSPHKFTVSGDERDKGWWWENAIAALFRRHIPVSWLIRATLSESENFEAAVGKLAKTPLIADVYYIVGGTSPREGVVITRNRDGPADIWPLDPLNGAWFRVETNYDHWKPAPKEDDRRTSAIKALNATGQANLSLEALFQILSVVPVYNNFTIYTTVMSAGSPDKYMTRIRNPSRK
As to the kind of experiment: Competitive activity-based protein profiling (ABPP) with probe ARN14686. Type of assay: binding. The procedure: At the end of this preincubation time, the activity-based probe undec-10-ynyl-N-[(S)-2-oxoazetidin-3-yl]carbamate (ARN14686, see Figure S1, Supporting Information)[45] was added at 20 μM for 15 min or for 4 h at 37 °C. Next, click chemistry reaction was performed by adding the following reagents at the indicated final concentrations: 100 μM azide-PEG3-alexa fluor 545 (CLK-AZ109, Jena Bioscience), 1.0 mM tris(2-carboxyethyl)phosphine (TCEP) hydrochloride, 100 μM tris-[(1-benzyl-1H-1,2,3-triazol-4-yl)methyl]amine (TBTA), and 1 mM CuSO4·5H2O.[62] TBTA was first dissolved in DMSO at 83.5 mM and then diluted with four volumes of tert-butanol. The reaction was mixed by vortexing and incubated 2 h at 25 °C. Samples (10 μL) were analyzed by SDS-PAGE, and gel fluorescence was scanned at 532 nm wavelength (ChemidDoc MP, BIO-RAD).

In general, inhibition refers to the change of the read-out against control, counted positive when it falls. A high value points to strong suppression. The compound `CCOCc1cnc(O[C@H]2C[C@H]3CC[C@@H](C2)N3S(=O)(=O)c2c(C)n[nH]c2C)cn1` [Compound 50, (1R,3r,5S)-8-((3,5-Dimethyl-1H-pyrazol-4-yl)sulfonyl)-3-((5-(ethoxymethyl)pyrazin-2-yl)oxy)-8-azabicyclo[3.2.1]octane] displayed an inhibition at 30 µM in assay [1] of 34%. In addition, the “effect on h-NAAA labeling by ABP ARN14686, 15 min probe incubation” value on h-NAAA (20 μM, lysosomal extracts of h-NAAA overexpressing HEK-293 cells, probe 15 min) is “prevented the binding”. Also, the “effect on h-NAAA labeling by ABP ARN14686, 4 h probe incubation” value on h-NAAA (20 μM, lysosomal extracts of h-NAAA overexpressing HEK-293 cells, probe 4 h) is on record as “almost totally reverted”. Also, the “mode of interaction with h-NAAA” value on h-NAAA (competitive ABPP) was “non-covalent interaction with h-NAAA”.

For the origin of these results see paper PMC8474119, “Discovery and SAR Evolution of Pyrazole Azabicyclo[3.2.1]octane Sulfonamides as a Novel Class of Non-Covalent N-Acylethanolamine-Hydrolyzing Acid Amidase (NAAA) Inhibitors for Oral Administration” (Journal of Medicinal Chemistry, 2021).
